Results published in patent US9062051B2, “Compounds and pharmaceutical compositions thereof for the treatment of proliferative disorders” (GALAPAGOS NV, priority 2014, dated 2015).

Legend:
[1] = target: T1, EphA2 (UniProt Ref: P29317) (Homo sapiens, UniProt P29317); assay: EphA2 assay (Reaction Biology HotSpot radioactive kinase assay); assay type: biochemical; details: ATP 10 μM; read-out: EphA2 potency IC50
T1 construct: purchased Reaction Biology
How it was run: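 Radiometric HotSpot assay measuring ^33P incorporation from [^33P]-γ-ATP into poly[Glu:Tyr] (4:1) (0.2 mg/mL) with 10 μM ATP. IC50 from serial 1/3 dilutions starting at 10 or 3 μM.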

[2] = target: T2, EphB4 (UniProt Ref: Q541P7) (Homo sapiens, UniProt P54760); assay: EphB4 assay (Reaction Biology HotSpot radioactive kinase assay); assay type: biochemical; details: ATP 10 μM; read-out: EphB4 potency IC50
T2 construct: purchased Reaction Biology
T2 sequence (P54760 16-987): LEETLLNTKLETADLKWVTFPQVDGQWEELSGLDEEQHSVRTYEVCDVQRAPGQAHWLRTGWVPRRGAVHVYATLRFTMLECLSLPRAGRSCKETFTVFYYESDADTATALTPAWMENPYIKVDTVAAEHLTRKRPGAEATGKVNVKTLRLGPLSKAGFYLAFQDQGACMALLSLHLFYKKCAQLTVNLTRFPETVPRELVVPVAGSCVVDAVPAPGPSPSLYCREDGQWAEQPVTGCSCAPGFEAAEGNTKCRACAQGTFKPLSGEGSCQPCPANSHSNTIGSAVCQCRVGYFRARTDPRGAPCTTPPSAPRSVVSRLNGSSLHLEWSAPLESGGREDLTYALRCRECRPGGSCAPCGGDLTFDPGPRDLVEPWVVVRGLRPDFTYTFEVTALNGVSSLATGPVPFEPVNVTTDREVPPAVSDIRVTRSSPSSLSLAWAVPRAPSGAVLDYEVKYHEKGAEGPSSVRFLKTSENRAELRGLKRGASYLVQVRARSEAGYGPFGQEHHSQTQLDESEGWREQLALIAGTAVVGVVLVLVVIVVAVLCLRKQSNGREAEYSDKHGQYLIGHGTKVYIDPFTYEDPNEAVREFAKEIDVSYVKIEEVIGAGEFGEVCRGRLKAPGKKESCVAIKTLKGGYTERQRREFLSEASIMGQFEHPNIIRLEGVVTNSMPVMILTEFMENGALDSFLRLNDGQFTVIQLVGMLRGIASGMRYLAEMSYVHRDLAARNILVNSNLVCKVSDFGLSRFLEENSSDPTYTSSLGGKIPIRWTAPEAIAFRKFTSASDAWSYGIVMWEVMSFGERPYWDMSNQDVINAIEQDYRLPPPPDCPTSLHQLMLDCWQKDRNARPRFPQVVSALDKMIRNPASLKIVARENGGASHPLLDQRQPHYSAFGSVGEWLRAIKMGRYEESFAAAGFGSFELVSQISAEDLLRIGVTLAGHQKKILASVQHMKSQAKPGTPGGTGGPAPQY
Procedure: Inhibition of EphB4 (UniProt Ref: Q541P7) by a test compound is determined by a commercially available Reaction Biology proprietary nanoliter radioactive HotSpot^SM assay (Reaction Biology, One great valley parkway, Suite 2, Malvern Pa., 19355, USA). The principle of the assay consists of the measurement of incorporated ^33P into poly[Glu:Tyr] (4:1) (0.2 mg/mL) when the substrate is phosphorylated by the enzyme using [^33P]-γ-ATP and ATP (10 μM).
To determine the IC50, a serial dilution of compound is tested starting from 10 or 3 μM (highest dilution) with a 1/3 dilution.

[3] = Pharmacokinetics in rats (exposure, AUC); assay type: in vivo, male Sprague Dawley rats; details: po; for AUC: male, Sprague Dawley, rat, plasma
Procedure: This study is performed with 6 naïve male Sprague Dawley rats (180-200 g, 6-8 weeks old). Rats are obtained from Janvier, Le Genest St Isle, France.
A controlled environment is maintained in the room with optimal conditions of approximately 15 air changes per hour, a temperature of 22±2 C, a relative humidity of 30-70% and a 12 hour light/dark cycle
Pelleted diet for rodents (UAR A04C-10) is used and is provided ad libitum. Before p.o. dosing, the animals are deprived of food for at least 12 hours before compound administration and 4 hours after administration. All animals had free access to tap water.
Two days before the dosing day, the implantation of a catheter in the jugular vein is done under gaseous anaesthesia with isoflurane.
Rats are dosed intravenously with test compound via a bolus in the tail vein with a dose level of 1 mg/kg. […]
The i.v. bolus and the oral administration are given a dose volume of 5 mL/kg.
From all animals approximately 200 μL blood samples are collected via the catheter and placed into tubes containing Li-heparin as anticoagulant. Blood samples are collected at the various time points (i.v.: 0.05, 0.25, 0.5, 1, 3, 5, 8 and 24 hours after dosing; p.o.: 0.25, 0.5, 1, 3, 5, 8 and 24 hours after dosing).
Blood is kept on ice. Within 1 hour after sampling, blood is centrifuged at 5,000 rpm for 10 min at 4° C. Immediately after centrifugation, the resulting plasma samples are collected into polypropylene tubes and are kept frozen at −20° C. pending bioanalysis.
Plasma samples are assayed by LC-MS/MS. Plasma proteins are precipitated with an excess of methanol containing the internal standard and the corresponding supernatant is injected on a C18 column. Analytes are eluted out the HPLC system by increasing the percentage of the organic mobile phase. An API4000 mass spectrometer (AB Sciex™) is used for the detection and quantification.
Pharmacokinetic parameters are calculated by non-compartmental analysis using WinNonlin® software (Pharsight, version 5.2).

T1 sequence (P29317 24-976): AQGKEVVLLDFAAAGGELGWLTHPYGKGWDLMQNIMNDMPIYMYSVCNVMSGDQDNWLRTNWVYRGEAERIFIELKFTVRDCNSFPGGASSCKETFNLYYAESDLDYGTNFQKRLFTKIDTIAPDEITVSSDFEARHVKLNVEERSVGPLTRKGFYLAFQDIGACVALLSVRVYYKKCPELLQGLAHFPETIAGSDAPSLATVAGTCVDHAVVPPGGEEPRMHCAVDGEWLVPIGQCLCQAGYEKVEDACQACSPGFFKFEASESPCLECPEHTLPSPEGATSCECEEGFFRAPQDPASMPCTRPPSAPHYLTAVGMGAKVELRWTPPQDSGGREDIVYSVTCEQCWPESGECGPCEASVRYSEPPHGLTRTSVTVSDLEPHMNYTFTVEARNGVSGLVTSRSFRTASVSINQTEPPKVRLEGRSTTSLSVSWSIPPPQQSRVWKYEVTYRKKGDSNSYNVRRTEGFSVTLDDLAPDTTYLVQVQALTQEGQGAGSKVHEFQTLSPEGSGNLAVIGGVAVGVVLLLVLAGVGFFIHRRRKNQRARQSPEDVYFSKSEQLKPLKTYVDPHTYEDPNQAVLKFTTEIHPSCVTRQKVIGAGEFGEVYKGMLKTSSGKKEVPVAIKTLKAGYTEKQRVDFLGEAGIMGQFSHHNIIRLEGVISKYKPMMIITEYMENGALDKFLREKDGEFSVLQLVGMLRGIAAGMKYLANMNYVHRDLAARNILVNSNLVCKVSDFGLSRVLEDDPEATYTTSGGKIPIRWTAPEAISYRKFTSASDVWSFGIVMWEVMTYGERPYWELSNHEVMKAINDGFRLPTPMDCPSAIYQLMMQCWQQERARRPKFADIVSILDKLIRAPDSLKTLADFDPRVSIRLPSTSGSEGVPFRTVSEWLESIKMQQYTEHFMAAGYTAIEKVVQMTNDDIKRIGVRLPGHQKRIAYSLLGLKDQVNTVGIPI

| SMILES | IC50 [1] [nM] | IC50 [2] [nM] | Exposure AUC ([3]; 5 mg/kg) [ng·h/mL] | AUC ([3]; 5 mg/kg) [ng·h/mL] | AUC ([3]; 5 mg/kg, formulated in methylcellulose 5% in water) [ng·h/mL] | AUC ([3]; 3 mg/kg) [ng·h/mL] | AUC ([3]; 30 mg/kg) [ng·h/mL] |
| --- | --- | --- | --- | --- | --- | --- | --- |
| Cc1ccc(NC(=O)c2cccc(C(F)(F)F)c2)cc1-c1ccc2c(C(O)CN3CCOCC3)n[nH]c2n1 (centres unmarked) [Compound 2, N-{3-[3-(1-Hydroxy-2-morpholin-4-yl-ethyl)-1H-pyrazolo[3,4-b]pyridin-6-yl]-4-methyl-phenyl}-3-trifluoromethyl-benzamide] | 50 to 100 | 0.01 to 25 | 659 | 852 |  |  |  |
| Cc1cccc(C(=O)Nc2ccc(C)c(-c3ccc4c(C(O)CN5CCOCC5)n[nH]c4n3)c2)c1 (centres unmarked) [Compound 3, N-{3-[3-(1-Hydroxy-2-morpholin-4-yl-ethyl)-1H-pyrazolo[3,4-b]pyridin-6-yl]-4-methyl-phenyl}-3-methyl-benzamide] |  | 0.01 to 25 | 159 | 214 |  |  |  |
| Cc1ccc(C(=O)Nc2cccc(C(F)(F)F)c2)cc1-c1ccc2c(C(O)CN3CCOCC3)n[nH]c2n1 (centres unmarked) [Compound 5, 3-[3-(1-Hydroxy-2-morpholin-4-yl-ethyl)-1H-pyrazolo[3,4-b]pyridin-6-yl]-4-methyl-N-(3-trifluoromethyl-phenyl)-benzamide] | 0.01 to 25 | 25 to 50 |  |  |  |  |  |
| Cc1ccc(NC(=O)c2cccc(N(C)C)c2)cc1-c1ccc2c(C(O)CN3CCOCC3)n[nH]c2n1 (centres unmarked) [Compound 6, 3-Dimethylamino-N-{3-[3-(1-hydroxy-2-morpholin-4-yl-ethyl)-1H-pyrazolo[3,4-b]pyridin-6-yl]-4-methyl-phenyl}-benzamide] | 50 to 100 | 25 to 50 |  | 1790 |  |  |  |
| Cc1ccc(NC(=O)c2cccc(C(F)(F)F)c2)cc1-c1ccc2c(C(C)O)n[nH]c2n1 (centres unmarked) [Compound 35, N-{3-[3-(1-Hydroxy-ethyl)-1H-pyrazolo[3,4-b]pyridin-6-yl]-4-methyl-phenyl}-3-trifluoromethyl-benzamide] | 25 to 50 | 25 to 50 |  | 3570 |  |  |  |
| Cc1ccc(NC(=O)c2cccc(C(F)(F)F)c2)cc1-c1ccc2c([C@H](C)O)n[nH]c2n1 [Compound 55, N-{3-[3-((S)-1-Hydroxy-ethyl)-1H-pyrazolo[3,4-b]pyridin-6-yl]-4-methyl-phenyl}-3-trifluoromethyl-benzamide] | 0.01 to 25 | 0.01 to 25 |  | 965 |  | 1060 | 13600 |
| Cc1ccc(NC(=O)c2cccc(C(F)(F)F)c2)cc1-c1cc(C)c2c(N)n[nH]c2n1 [Compound A, N-(3-(3-amino-4-methyl-1H-pyrazolo[3,4-b]pyridin-6-yl)-4-methylphenyl)-3-(trifluoromethyl)benzamide] |  |  |  | 273 |  |  |  |

Further lines, results first:

| IC50 [1] [nM] | IC50 [2] [nM] | Exposure AUC ([3]; 5 mg/kg) [ng·h/mL] | AUC ([3]; 5 mg/kg) [ng·h/mL] | AUC ([3]; 5 mg/kg, formulated in methylcellulose 5% in water) [ng·h/mL] | AUC ([3]; 3 mg/kg) [ng·h/mL] | AUC ([3]; 30 mg/kg) [ng·h/mL] | SMILES |
| --- | --- | --- | --- | --- | --- | --- | --- |
| > 100 | 25 to 50 |  |  | 407 |  |  | COc1cc(OC)cc(C(=O)Nc2ccc(C)c(-c3ccc4c(C(O)CN5CCOCC5)n[nH]c4n3)c2)c1 (centres unmarked) [Compound 4, N-{3-[3-(1-Hydroxy-2-morpholin-4-yl-ethyl)-1H-pyrazolo[3,4-b]pyridin-6-yl]-4-methyl-phenyl}-3,5-dimethoxy-benzamide] |
| 25 to 50 | 25 to 50 |  | 3260 |  |  |  | COc1cc(OC)cc(C(=O)Nc2ccc(C)c(-c3ccc4c(C(C)O)n[nH]c4n3)c2)c1 (centres unmarked) [Compound 9, N-{3-[3-(1-Hydroxy-ethyl)-1H-pyrazolo[3,4-b]pyridin-6-yl]-4-methyl-phenyl}-3,5-dimethoxy-benzamide] |
| 0.01 to 25 | 0.01 to 25 |  |  |  |  |  | COc1cc(OC)cc(C(=O)Nc2ccc(C)c(-c3ccc4c(C)n[nH]c4n3)c2)c1 [Compound 11, 3,5-Dimethoxy-N-[4-methyl-3-(3-methyl-1H-pyrazolo[3,4-b]pyridin-6-yl)-phenyl]-benzamide] |
| 50 to 100 | 25 to 50 |  | 1420 |  |  |  | CCc1n[nH]c2nc(-c3cc(NC(=O)c4cc(OC)cc(OC)c4)cnc3C)ccc12 [Compound 13, N-[5-(3-Ethyl-1H-pyrazolo[3,4-b]pyridin-6-yl)-6-methyl-pyridin-3-yl]-3,5-dimethoxy-benzamide] |
| 0.01 to 25 | 0.01 to 25 |  |  |  |  |  | Cc1cc(C)cc(C(=O)Nc2ccc(C)c(-c3ccc4c(CO)n[nH]c4n3)c2)c1 [Compound 16, N-[3-(3-Hydroxymethyl-1H-pyrazolo[3,4-b]pyridin-6-yl)-4-methyl-phenyl]-3,5-dimethyl-benzamide] |
| 50 to 100 | 25 to 50 |  | 1230 |  |  |  | COc1cc(OC)cc(C(=O)Nc2cnc(C)c(-c3ccc4c(C)n[nH]c4n3)c2)c1 [Compound 17, 3,5-Dimethoxy-N-[6-methyl-5-(3-methyl-1H-pyrazolo[3,4-b]pyridin-6-yl)-pyridin-3-yl]-benzamide] |
| 0.01 to 25 | 0.01 to 25 |  |  |  |  |  | CCc1n[nH]c2nc(-c3cc(NC(=O)c4cc(C)cc(OCCN5CCOCC5)c4)ccc3C)ccc12 [Compound 20, N-[3-(3-Ethyl-1H-pyrazolo[3,4-b]pyridin-6-yl)-4-methyl-phenyl]-3-methyl-5-(2-morpholin-4-yl-ethoxy)-benzamide] |
| 25 to 50 | 0.01 to 25 |  |  |  |  |  | CCc1n[nH]c2nc(-c3cc(NC(=O)c4cc(C)cc(OCCOC)c4)ccc3C)ccc12 [Compound 21, N-[3-(3-Ethyl-1H-pyrazolo[3,4-b]pyridin-6-yl)-4-methyl-phenyl]-3-(2-methoxy-ethoxy)-5-methyl-benzamide] |
| 50 to 100 |  |  | 5840 |  |  |  | COc1cc(OC)cc(C(=O)Nc2ccc(C)c(-c3ccc4c(C5(O)CC5)n[nH]c4n3)c2)c1 [Compound 29, N-{3-[3-(1-Hydroxy-cyclopropyl)-1H-pyrazolo[3,4-b]pyridin-6-yl]-4-methyl-phenyl}-3,5-dimethoxy-benzamide] |
|  | > 100 |  |  |  |  |  | CCc1n[nH]c2nc(-c3cc(NC(=O)c4cc(OC)cc(C(F)(F)F)c4)cnc3C)ccc12 [Compound 49, N-[5-(3-Ethyl-1H-pyrazolo[3,4-b]pyridin-6-yl)-6-methyl-pyridin-3-yl]-3-methoxy-5-trifluoromethyl-benzamide] |
| 50 to 100 | 0.01 to 25 |  | 1270 |  |  |  | CCc1n[nH]c2nc(-c3cc(NC(=O)c4cc(C)cc(C)c4)cnc3C)ccc12 [Compound 50, N-[5-(3-Ethyl-1H-pyrazolo[3,4-b]pyridin-6-yl)-6-methyl-pyridin-3-yl]-3,5-dimethyl-benzamide] |
